The results in this text go back to PMC5326599 (Antiviral research, 2017).

Experiment [1] has as its system A/Solomon Islands/3/2006 (H1N1) virus. Put plainly: microbe, parasite or virus in culture. In kind it is cell-based. Particulars: read-out: EC50, A/Solomon Islands/3/2006 (H1N1).
The subject of experiment [2] is A/WSN/33 (M2-N31S) (H1N1) virus. In kind it is cell-based, influenza A virus. Particulars: read-out: EC50, A/WSN/33 (M2-N31S) (H1N1).
Experiment [3] relates to A/Udorn/72 (H3N2) virus (M2-WT). Put plainly: microbe, parasite or virus in culture. In kind it is cell-based, influenza A virus.
The subject of experiment [4] is influenza A/WSN/33 (M2-N31S + V27A) (H1N1) virus. More on the design: species or system BALB/c mice. The conditions noted are these: mouse, in vivo.
The target in experiment [5] is A/Udorn/72 (M2-V27A) proton channel (Influenza A virus, UniProt P0DOF5, V27A). It counts as biochemical.
Experiment [6] has as its system A/WSN/33 (M2-N31S + V27A) (H1N1) virus. In kind it is cell-based, influenza A virus.
The target of a further experiment is M2-S31N channel (Influenza A virus, UniProt P0DOF5, S31N). In kind it is biochemical.

“And” between values parts separate entries of the source, which are not always exact repeats. Equal entries are not always repeated. Where two headings read alike, the source gives them in different places. Marks after values point to notes of the source that are not given here. Some results are limits rather than exact numbers.

`NC12CC3CC(CC(C3)C1)C2` [Amantadine (1), amantadine]: in experiment [1] (Influenza A virus, H1N1, MDCK), the EC50 was found to be […]. Further, the EC50 in experiment [2] stood at […]. Further, the EC50 in experiment [3] (Influenza A virus, H3N2, read-out: antiviral EC50 at passage 1) was […]. In addition, in experiment [4], the “MDD ± SD (mean day of death)” value was […]; the “Mean Lung Parameters ± SD (Day 6): Virus Titer” value was […]; the “Mean Lung Parameters ± SD (Day 6): Weight” value was […]; the Survivors/Total is […]. The “protection / effectiveness (in words)” value in experiment [4] was “minimum effectiveness”.

`NC1CCC2(CC1)C1CC3CC(C1)CC2C3` (centres unmarked) [Compound 3, spiroadamantane amine]: the EC50 in experiment [1] is […]. For the same compound, in experiment [5], the “channel conductance current at the second activation event, % of the maximum current” value worked out at […]. Besides, the EC50 in experiment [6] (read-out: Antiviral Efficacy EC50, A/WSN/33 (M2-N31S + V27A) (H1N1) M2-V27A) was […]. The EC50 in experiment [2] was […]. Moreover, the EC50 in experiment [3] (read-out: antiviral EC50 at passage 1) was […]. Further, the EC50 in experiment [3] (read-out: antiviral EC50 at passage 2) was […]. Besides, in experiment [4], the “MDD ± SD (mean day of death)” value is […]; the “Mean Lung Parameters ± SD (Day 6): Virus Titer” value was […]; the “Mean Lung Parameters ± SD (Day 6): Weight” value is […]; the Survivors/Total was […]. Further, the “protection / effectiveness (in words)” value in experiment [4] is “highly protective”. For the same compound, the “channel inhibition at 100 μM, M2-S31N” value on M2-S31N channel is […].

In the case of `CCOC(=O)C1=C[C@@H](OC(CC)CC)[C@H](NC(C)=O)[C@@H](N)C1` [Oseltamivir (4), Oseltamivir], in experiment [4], the “Mean Lung Parameters ± SD (Day 6): Hemorrhage Score” value was 0.0 ± 0.0, the “Mean Lung Parameters ± SD (Day 6): Virus Titer” value came out at 2.5 ± 0.2 Log10 CCID50/g, the “Mean Lung Parameters ± SD (Day 6): Weight” value was found to be 178 ± 28 mg and the Survivors/Total is on record as 10/10^***. The protection from death in experiment [4] is 100%.

Take `CCC(CC)O[C@@H]1C=C(C(=O)O)C[C@H](N)[C@H]1NC(C)=O` [Oseltamivir carboxylate (4), Oseltamivir carboxylate, reference compound]: the “inhibition of plaque formation” value in experiment [6] was “complete inhibition”.
